Laboratory results as given in PubChem BioAssay (NCI).
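A five-concentration, 48-hour dose response in 96-well plates underlies each endpoint, interpolated linearly between surrounding concentrations. Abbreviation: GI50, concentration required for 50% inhibition of growth. Definition used: TGI = concentration required for complete inhibition of growth.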

Legend:
Assay in all cases: NCI-60 cell line screen, 48 h
[1] = test system: SK-MEL-28 melanoma
[2] = test system: MOLT-4 leukemia
[3] = test system: UACC-62 melanoma
[4] = test system: 786-0 renal
[5] = test system: HCT-116 colon
[6] = test system: IGROV1 ovarian
[7] = test system: KM12 colon
[8] = test system: OVCAR-4 ovarian
[9] = test system: SR leukemia
[10] = test system: RPMI-8226 leukemia

Compound | TGI [1] [µM] | TGI [2] [µM] | TGI [3] [µM] | TGI [4] [µM] | TGI [5] [µM] | TGI [6] [µM] | TGI [7] [µM] | TGI [8] [µM] | TGI [9] [µM] | TGI [10] [µM] | GI50 [4] [µM] | GI50 [5] [µM] | GI50 [6] [µM] | GI50 [7] [µM] | GI50 [8] [µM] | GI50 [9] [µM] | GI50 [10] [µM] | GI50 [1] [µM] | GI50 [2] [µM] | GI50 [3] [µM]
COc1ccc(/C=N/NS(=O)(=O)c2ccccc2)cc1 | > 100 | > 100 | > 100 | > 100 | > 100 | > 100 | > 100 | > 100 | > 100 | > 100 | – | – | – | – | – | – | – | – | – | –
CCCCC1(C(NC(=O)c2ccccc2Cl)c2ccncc2)C(=O)N(c2ccccc2)N(c2ccccc2)C1=O (configuration not stated) | > 100 | 50.3 | > 100 | > 100 | > 100 | > 100 | > 100 | – | 93.9 | 84.1 | – | – | – | – | – | – | – | – | – | –
CN(C)c1ccc(C(O)C2=CC(=O)c3ccccc3C2=O)cc1 (configuration not stated) | – | – | – | 34.6 | 37 | 4.52 | 91.4 | > 100 | 4.49 | 66.8 | 14.4 | 17.8 | 1.94 | 13.7 | 4.51 | 1.88 | 3.69 | – | – | –
O=C(O)CCCCC1CCSS1 (configuration not stated) | > 100 | > 100 | – | > 100 | > 100 | > 100 | > 100 | > 100 | > 100 | > 100 | – | – | – | – | – | – | – | – | – | –
Cc1cc(S(N)(=O)=O)c(S/C(=N\NS(=O)(=O)c2ccccc2)c2ccc(Cl)cc2)cc1Cl | > 100 | > 100 | > 100 | > 100 | > 100 | > 100 | > 100 | > 100 | > 100 | – | > 100 | 77 | > 100 | > 100 | > 100 | 49.2 | – | > 100 | 34.4 | > 100
CCn1c(-c2nonc2N)nc2cnc(Oc3cccc(NC(=O)c4ccc(N(C)C)cc4)c3)cc21 | > 25 | > 25 | > 25 | > 25 | > 25 | > 25 | > 25 | > 25 | – | > 25 | 21.6 | 11.3 | 22 | > 25 | > 25 | – | > 25 | > 25 | 13.6 | > 25
COc1ccc(-c2csc(Nc3cccc(-c4csc(C)n4)c3)n2)cc1 | > 12.1 | 7.11 | 7.61 | > 34.8 | > 50 | > 41.6 | > 16.7 | – | 0.27 | > 50 | 2.14 | 1.8 | 0.697 | 1.17 | – | 0.0878 | 2.52 | 1.98 | 0.287 | 0.249
C=C1CC[C@H]2C(C)=CC[C@H]3C(=C)C(=O)O[C@@H]3[C@@H]12 | > 100 | > 100 | > 100 | > 100 | > 100 | > 100 | – | > 100 | > 100 | – | – | – | – | – | – | – | – | – | – | –
CCCCCC[C@H]1C(=O)O[C@H](C)[C@H](NC(=O)c2cccc(NC=O)c2OC)C(=O)O[C@@H](C)[C@@H]1OC(=O)CCC (tested in a mixture with another compound) | 33.3 | 26.6 | 21.2 | 27.1 | 24.3 | – | 31.4 | 29 | 18.8 | 37.9 | 13.1 | 9.89 | – | 9.77 | 12.7 | 3.64 | 12.2 | 16.2 | 5.64 | 6.54
O=[N+]([O-])/C=C/c1ccc(Cl)cc1[N+](=O)[O-] | 27.7 | 12.6 | 3.64 | 4.62 | 3.67 | 5.85 | > 100 | 15 | > 100 | – | 2.42 | 1.86 | 2.01 | 3.09 | 4.36 | 1.68 | – | 14 | 3.09 | 1.55
Cn1cnnc1[S-].[Au+].c1ccc([PH+](c2ccccc2)c2ccccc2)cc1 | 2.91 | – | 2.55 | 3.15 | 3.26 | – | 3.22 | – | – | 5.39 | 1.72 | 1.72 | – | 1.71 | – | – | 1.69 | 1.52 | – | 1.26
COc1cc(-c2nn(-c3cccc(NC(=O)CCN4CCN(c5ccccc5)CC4)c3)cc2-c2ccncc2)ccc1Cl | > 100 | > 100 | 8.01 | 4.23 | > 100 | > 100 | 9.97 | > 100 | – | – | 1.83 | 2.85 | 4.12 | 2.45 | 3.03 | – | – | 3.19 | 2.89 | 2.49
COc1cc(N(C)C)c(OC)cc1C=C1C=CC=C1 | > 100 | > 100 | > 100 | > 100 | > 100 | > 100 | > 100 | – | > 100 | – | – | – | – | – | – | – | – | – | – | –
COc1cc(-c2nn(-c3cccc(NC(=O)CCNc4ccc(N5CCOCC5)cc4)c3)cc2-c2ccncc2)ccc1Cl | > 100 | 6.98 | 4.89 | 34.7 | > 100 | > 100 | 20 | 16.6 | 9.09 | – | 2.87 | 2.31 | 3.31 | 2.44 | 2.6 | 2.13 | – | 3.13 | 1.6 | 1.88
Cc1ccc(S(=O)C(C)C(Cl)c2ccccc2)cc1 (configuration not stated) | > 100 | > 100 | > 100 | > 100 | > 100 | > 100 | – | > 100 | > 100 | > 100 | – | – | – | – | – | – | – | – | – | –
COc1cc(OC)c2c(=O)c3cccc([N+](=O)[O-])c3n(C)c2c1 | > 100 | > 100 | > 100 | > 100 | – | > 100 | > 100 | > 100 | – | > 100 | – | – | – | – | – | – | – | – | – | –
O=C1OC(=O)C([Se]c2ccccc2)=C1[Se]c1ccccc1 | > 100 | > 100 | > 100 | > 100 | > 100 | > 100 | – | > 100 | > 100 | > 100 | – | – | – | – | – | – | – | – | – | –

Compound | TGI [1] [µM] | TGI [2] [µM] | TGI [3] [µM] | TGI [4] [µM] | TGI [5] [µM] | TGI [6] [µM] | TGI [7] [µM] | TGI [8] [µM] | TGI [9] [µM] | TGI [10] [µM] | GI50 [4] [µM] | GI50 [5] [µM] | GI50 [6] [µM] | GI50 [7] [µM] | GI50 [8] [µM] | GI50 [9] [µM] | GI50 [10] [µM] | GI50 [1] [µM] | GI50 [2] [µM] | GI50 [3] [µM]
C[C@H]1CC[P+](C)(c2ccccc2)C1 (some centres not stated) | > 100 | > 100 | > 100 | > 100 | > 100 | > 100 | > 100 | – | > 100 | > 100 | – | – | – | – | – | – | – | – | – | –
CCOC(=O)c1c(NC(=O)c2ccc(Cl)cc2)sc2c(CN(C)C)c(O)ccc12 | – | > 100 | 14.8 | 20.7 | 40.8 | 31.7 | > 100 | 71.4 | 4.82 | – | 5.54 | 6.96 | 8.88 | 4.82 | 9.85 | 2.19 | – | – | 4.11 | 3.41
OCC(O)C(O)C(O)C(O)c1nnc2c(-c3ccccc3)nc3ccccc3n12 (configuration not stated) | > 100 | – | > 100 | > 100 | > 100 | > 100 | > 100 | 96.3 | – | > 100 | > 100 | > 100 | 14.5 | > 100 | 16 | – | 67.2 | > 100 | – | > 100
N#CCc1cccc(CC#N)c1Br | – | > 100 | > 100 | > 100 | > 100 | > 100 | > 100 | > 100 | > 100 | > 100 | – | – | – | – | – | – | – | – | – | –
O=C1CCC(=O)N1Sc1ccccc1 | > 100 | > 100 | > 100 | > 100 | > 100 | > 100 | > 100 | > 100 | – | > 100 | – | – | – | – | – | – | – | – | – | –
CCCCCCCCCCCCCCCC[n+]1ccccc1 | 2.56 | – | 2.15 | 1.91 | 1.31 | 1.9 | – | 3.29 | – | – | 0.548 | 0.321 | 0.384 | – | 0.57 | – | – | 1.25 | – | 0.565
CCN(c1ccccc1)[C@H]1C(=O)N(c2ccc([N+](=O)[O-])cc2)[C@H]1c1ccc(OC)cc1 | > 100 | > 100 | > 100 | > 100 | > 100 | > 100 | > 100 | – | > 100 | > 100 | – | – | – | – | – | – | – | – | – | –
O=NNc1ccc(S(=O)(=O)c2ccc3ccccc3c2)cn1 | > 100 | – | > 100 | > 100 | > 100 | > 100 | > 100 | > 100 | > 100 | – | – | – | – | – | – | – | – | – | – | –
CC(C)OP(=O)(O)c1ncc(-c2ccc(C(F)(F)F)cc2)c(NC2CCCCCC2)n1 | > 100 | > 100 | > 100 | > 100 | > 100 | > 100 | > 100 | > 100 | – | > 100 | > 100 | > 100 | > 100 | 68.8 | 61.2 | – | 20.9 | > 100 | > 100 | 49.7
C=C1C[C@@H]2O[C@H]3[C@H]4[C@@H](CC[C@@](C)(OC(=O)CCC)[C@H]42)[C@@H](C)C(=O)O[C@@]3(C)CC[C@H]1OO | 35.4 | 23 | – | > 100 | 54.6 | 35.6 | 30.9 | 40.2 | 18.4 | 28.8 | > 100 | 24.3 | 17.8 | 16.4 | 19.5 | 5.48 | 14 | 20 | 11 | –
COc1cc(/C=C2\SC(N3CCCCC3)=NC2=O)ccc1OCCCCCCOc1ccc(/C=C2\SC(N3CCCCC3)=NC2=O)cc1OC | 43.9 | > 100 | 67.1 | 27.8 | 31.2 | 43 | 25 | – | 65.8 | – | 7.71 | 12.6 | 11.1 | 11.1 | – | 9.16 | – | 15.7 | 17.4 | 16.1
COc1ccc(C)cc1NC(=S)C#N | > 100 | – | > 100 | > 100 | > 100 | – | > 100 | – | – | > 100 | – | – | – | – | – | – | – | – | – | –
Nc1ccccc1C#Cc1ccccc1C#Cc1cccs1 | 41 | > 100 | 28.6 | 31 | 25.4 | 90.8 | 27.7 | > 100 | – | 40.6 | 16.3 | 12.8 | 18.4 | 10.3 | 31 | – | 14.1 | 15.7 | 32.4 | 13.8
C1=CC2CCC1CN2CCC1CNc2ccccc21 (configuration not stated) | > 100 | > 100 | > 100 | > 100 | > 100 | > 100 | > 100 | – | > 100 | > 100 | – | – | – | – | – | – | – | – | – | –
OCCN(CO)CO | > 100 | – | > 100 | > 100 | > 100 | > 100 | > 100 | > 100 | – | > 100 | – | – | – | – | – | – | – | – | – | –
COc1ccc(-c2cc(/C=C/C(=O)c3ccc(N)cc3)[nH]n2)cc1 | 4.01 | 9.48 | 2.94 | 5.69 | – | 6.45 | 3.42 | 8.01 | 6.09 | 3.22 | 2.12 | – | 2.27 | 1.54 | 1.08 | 0.799 | 0.6 | 1.87 | 2.32 | 1.48
COc1ccc(C2NC(=S)NC3=C2CCOc2c3ccc3ccccc23)cc1 (configuration not stated) | > 100 | > 100 | > 100 | > 100 | – | > 100 | > 100 | > 100 | > 100 | > 100 | > 100 | – | > 100 | 27 | > 100 | 7.27 | 12.8 | > 100 | 87.1 | 21.2
